This is an account of results in US10597368B2, “Syringolin analogues and methods of making and using same” (BROWN UNIVERSITY, priority 2015, dated 2020).

The subject of assay [1] is RPMI-8226. Nature of the assay: NCI dose-dependent growth inhibition, RPMI-8226. The class given is cell-based. To be noted: Homo sapiens; RPMI-8226, 48-h exposure. The text has this:
(§1) The three compounds were particularly active against leukemia cell lines. […] Without wishing to be limited by any theory, such differences in biochemical and biological patterns may be explained by differences in the cell permeabilities or stabilities of the two compounds. […] Data provided by the National Cancer Institute (NCI): […] The optical density of the test well after a 48-h period of exposure to test drug is T, the optical density at time zero is T0, and the control optical density is C. The “50” is called the […] parameter that can have values from +100 to -100.

Assay [2] deals with MOLT-4. Put plainly: NCI dose-dependent growth inhibition, MOLT-4. Type of assay: cell-based. To be noted: Homo sapiens; MOLT-4, 48-h exposure.
Text: as §1

Assay [3] concerns HL-60. Nature of the assay: NCI dose-dependent growth inhibition, HL-60. The class given is cell-based. To be noted: Homo sapiens; HL-60, 48-h exposure.
Text: as §1

For assay [4], the system named is K-562. Put plainly: NCI dose-dependent growth inhibition, K-562. Type of assay: cell-based. To be noted: Homo sapiens, K562; K-562, 48-h exposure.
Text: as §1

For assay [5], the system named is SR. Put plainly: NCI dose-dependent growth inhibition, SR. The class given is cell-based. To be noted: Homo sapiens, 48-h exposure.
Text: as §1

The subject of assay [6] is 60 different cancer cell lines. Nature of the assay: NCI single-dose growth assay with 60 cancer cell lines. Type of assay: cell-based. To be noted: 10 μM, average over the panel of cell lines. As to the method: FIG. 6 illustrates the in vitro inhibition results for compound 1, while FIG. 7 illustrates the in vitro inhibition results for compound 13. FIG. 8 illustrates the in vitro inhibition results for compound 14, while FIG. 9 illustrates the in vitro inhibition results for compound 15. FIG. 10 illustrates the in vitro inhibition results for compound 16. […] Specifically, cell lines incubated in media with 10 μM of compound 15 grew at an average of 30% of those incubated in media without compound. The mean growth of the cell lines in media with the same concentration of compound 16 was approximately 71% of those in negative control experiments.

Assay [7] deals with T1, human 20S proteasome (hs20S), chymotrypsin-like β5-subunits (Homo sapiens, UniProt P20618+P28074).
T1 construct: purchased R&D
Nature of the assay: In vitro 20S peptidase inhibition kinetics, chymotrypsin-like activity (Suc-LLVY-AMC). The class given is biochemical. To be noted: second-order rate constant, Suc-LLVY-AMC substrate, 37° C. How it is done:
In vitro 20S peptidase inhibition assays were recorded in a 384-well plate at a SpectraMax M5 (Molecular devises) plate-reader. Therefore, 5 nM human 20S (R&D) was incubated in buffer R (50 mM HEPES-KOH, pH 7.5, 0.5 mM EDTA) with 100 μM of the fluorogenic peptide substrates Suc-LLVY-AMC or Boc-LRR-AMC. Reactions were started by adding various amounts of inhibitors (5 nM to 500 μM) to a final volume of 30 μL and peptide hydrolysis was continuously monitored for 90 min by changes in fluorescence (excitation 380 nm; emission 440 nm) at 37° C. The kobs values were determined by fitting the raw data to equation (1). The slopes of the plots of kobsversus I gave an apparent value of kobs/I, also referred to as kinact/Ki for an irreversible inhibitor, which was then corrected by equation (2) to compensate for the effect of substrate competition, where app is the apparent value at different inhibitor concentrations.
Using purified human 20S proteasome (hs20S) and a fluorogenic substrate (Suc-LLVY-AMC), in vitro assays were performed to systematically assess proteasome inhibition by the syringolin analogues. The choice of substrate was based on the fact that it is preferentially acted upon by the chymotrypsin-like β5-subunits of the proteasome due to the aromatic tyrosine residue at the scissile bond (i.e., P1 position).
From measurements of the rates of hydrolysis of the fluorogenic substrate by the proteasome in the presence of increasing concentrations of each inhibitor, second-order rate constants kin/Ki (M^−1 s^−1) were determined (Table 1), which reflect both the affinity of the non-covalent binding (Ki) and the rate of the chemical reaction with the enzyme (kin). All of the syringolin analogues were capable in inhibiting the chymotrypsin-like activity of hs20S. Without wishing to be limited by any theory, consistent with the design predictions, the most significant contributor to the apparent second-order rate constants of the compounds was their binding affinity (Ki) rather than the rates of inhibition.
In vitro 20S peptidase inhibition assays were recorded in a 384-well plate at a SpectraMax M5 (Molecular Devices) plate-reader. Therefore, 5 nM human 20S (R&D) was incubated in buffer R (50 mM HEPEs-KOH, pH 7.5, 0.5 mM EDTA) with 100 μM of the fluorogenic peptide substrate Suc-LLVY-AMC. Reactions were started by adding various amounts of inhibitors 5 nM to 500 μM) to a final volume of 30 μL and peptide hydrolysis was continuously monitored for 90 minutes by changes in fluorescence (excitation 380 nm; emission 440 nm) at 37 degrees Celsius. The kobs values were determined by fitting the raw data to equation 1. The slopes of the plots of kobs versus I gave an apparent value of kob/I, also referred to as kinact/Ki for an irreversible inhibitor, which was then corrected by equation 2 to compensate for the effect of substrate competition, where app is the apparent value at different inhibitor concentrations.

Assay [8] has as its system leukemia cell lines. Nature of the assay: NCI dose-dependent growth inhibition, leukemia cell lines overall. Type of assay: cell-based. To be noted: as much as, fold more potent.
Text: as §1

For orientation: GI50 means the concentration at which growth is held to half of that of the control. As to `COC(=O)[C@@H](NC(=O)N[C@H](C(=O)N[C@H]1CCCCNC(=O)/C=C/[C@H](C(C)C)NC1=O)C(C)C)C(C)C` [Compound 1, Syringolin B Methyl Ester, reference compound], the GI50 in assay [1] turned out to be 3.97 µM; in assay [2], 4.73 µM; in assay [3], 5.41 µM; in assay [4] it was 6.12 µM; in assay [5], 5.13 µM.
Turning to `COC(=O)[C@@H](NC(=O)N[C@@H](Cc1ccccc1)C(=O)N[C@H]1CCCCNC(=O)/C=C/[C@H](Cc2ccccc2)NC1=O)C(C)C` [Compound 15, (S)-methyl 2-(3-((S)-1-(((5S,8S,E)-5-benzyl-2,7-dioxo-1,6-diazacyclododec-3-en-8-yl)amino)-1-oxo-3-phenylpropan-2-yl)ureido)-3-methylbutanoate], the GI50 came to 2.72 µM in assay [1]; 3.32 µM in assay [2]; 4.34 µM in assay [3]; 14.6 µM in assay [4]; 2.78 µM in assay [5]. Moreover, in assay [6], the “mean growth of cell lines relative to media without compound” value is 30%. The “hs20S kin/Ki” value in assay [7] is reported as 4,199 M^−1s^−1.
Regarding `COC(=O)[C@@H](NC(=O)N[C@@H](Cc1ccccc1)C(=O)N[C@H]1CCCCNC(=O)/C=C/[C@H](Cc2c[nH]c3ccccc23)NC1=O)C(C)C` [Compound 16], the “potency relative to syringolin B methyl ester (1) against the leukemia cell lines” value in assay [8] is listed as at most 11.5 fold. Besides, the GI50 in assay [1] was 0.343 µM; in assay [2] it was 0.599 µM; in assay [3], 1.29 µM; in assay [4], 2.94 µM; in assay [5], 0.453 µM. The “mean growth of cell lines relative to media without compound” value in assay [6] is reported as “approximately 71%”.
